# Tested on: MPNST complex spheroid with HUVEC/MSC, growth, % test/control
# Experiment: Anticancer human tumor MPNST cell line growth inhibition [Asc];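 note: compounds left on spheroids for seven days before reading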
# Details: for IC50: curve of first compound; for viability, T/C: stronger effect = lower value
# How it was run: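 Stromal components (HUVEC and hMSC) are co-assembled with the cancer cells into multicellular spheroids. Drugs are then added singly or paired, at concentrations falling by half-log increments from a clinically achievable maximum, capped at 10 microM without known Cmax.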
# [1] = second compound 0.1 µM, first compound 0.00316 µM
# [2] = second compound 0.1 µM, first compound 0.01 µM
# [3] = second compound 0.1 µM, first compound 0.0316 µM
# [4] = second compound 0.1 µM, first compound 0.1 µM
# [5] = second compound 0.316 µM, first compound 0.00316 µM
# [6] = second compound 0.316 µM, first compound 0.01 µM
# [7] = second compound 0.316 µM, first compound 0.0316 µM
# [8] = second compound 0.316 µM, first compound 0.1 µM
# [9] = second compound 1 µM, first compound 0.00316 µM
# [10] = second compound 1 µM, first compound 0.01 µM
# [11] = second compound 1 µM, first compound 0.0316 µM
# [12] = second compound 1 µM, first compound 0.1 µM
# [13] = second compound 3.16 µM, first compound 0.00316 µM
# [14] = second compound 3.16 µM, first compound 0.01 µM
# [15] = second compound 3.16 µM, first compound 0.0316 µM
# [16] = second compound 3.16 µM, first compound 0.1 µM
# [17] = second compound 10 µM, first compound 0.00316 µM
# [18] = second compound 10 µM, first compound 0.01 µM
# [19] = second compound 10 µM, first compound 0.0316 µM
# [20] = second compound 10 µM, first compound 0.1 µM
# [21] = second compound 0.1 µM, first compound 0.316 µM
# [22] = second compound 0.1 µM, first compound 1 µM
# [23] = second compound 0.316 µM, first compound 0.316 µM
# [24] = second compound 0.316 µM, first compound 1 µM
# [25] = second compound 1 µM, first compound 0.316 µM
# [26] = second compound 1 µM, first compound 1 µM
# [27] = second compound 3.16 µM, first compound 0.316 µM
# [28] = second compound 3.16 µM, first compound 1 µM
# [29] = second compound 10 µM, first compound 0.316 µM
# [30] = second compound 10 µM, first compound 1 µM
smiles,measurement,setting,value
Cc1nc(N2CCC3(CC2)COC(C)C3N)c(CO)nc1Sc1ccnc(N)c1Cl (configuration not stated) + CNC(C)C(=O)NC1CN(S(=O)(=O)c2cccc(S(=O)(=O)N3CCC4CCC(C(=O)NC(c5ccccc5)c5ccccc5)N4C(=O)C(NC(=O)C(C)NC)C3)c2)CCC2CCC(C(=O)NC(c3ccccc3)c3ccccc3)N2C1=O,IC50,second compound 0.00316 µM,105 nM
same,IC50,second compound 0.01 µM,125 nM
same,IC50,second compound 0.0316 µM,119 nM
same,IC50,second compound 0.1 µM,157 nM
same,IC50,second compound 0.316 µM,647 nM
same,IC50,second compound 1 µM,300 nM
same,"viability, T/C","second compound 0.00316 µM, first compound 0.00949 µM",90.5%
same,"viability, T/C","second compound 0.00316 µM, first compound 0.03 µM",56.4%
same,"viability, T/C","second compound 0.00316 µM, first compound 0.0949 µM",57%
same,"viability, T/C","second compound 0.00316 µM, first compound 0.3 µM",41.5%
same,"viability, T/C","second compound 0.00316 µM, first compound 0.949 µM",62.1%
same,"viability, T/C","second compound 0.00316 µM, first compound 3 µM",30.6%
same,"viability, T/C","second compound 0.01 µM, first compound 0.00949 µM",103%
same,"viability, T/C","second compound 0.01 µM, first compound 0.03 µM",54%
same,"viability, T/C","second compound 0.01 µM, first compound 0.0949 µM",60.7%
same,"viability, T/C","second compound 0.01 µM, first compound 0.3 µM",51.6%
same,"viability, T/C","second compound 0.01 µM, first compound 0.949 µM",39.5%
same,"viability, T/C","second compound 0.01 µM, first compound 3 µM",25%
same,"viability, T/C","second compound 0.0316 µM, first compound 0.00949 µM",114%
same,"viability, T/C","second compound 0.0316 µM, first compound 0.03 µM",59.2%
same,"viability, T/C","second compound 0.0316 µM, first compound 0.0949 µM",65.9%
same,"viability, T/C","second compound 0.0316 µM, first compound 0.3 µM",40.1%
same,"viability, T/C","second compound 0.0316 µM, first compound 0.949 µM",42.8%
same,"viability, T/C","second compound 0.0316 µM, first compound 3 µM",40%
same,"viability, T/C","second compound 0.1 µM, first compound 0.00949 µM",68.9%
same,"viability, T/C","second compound 0.1 µM, first compound 0.03 µM",66.1%
same,"viability, T/C","second compound 0.1 µM, first compound 0.0949 µM",52.5%
same,"viability, T/C","second compound 0.1 µM, first compound 0.3 µM",45.8%
same,"viability, T/C","second compound 0.1 µM, first compound 0.949 µM",32.6%
same,"viability, T/C","second compound 0.1 µM, first compound 3 µM",28.8%
same,"viability, T/C","second compound 0.316 µM, first compound 0.00949 µM",60.8%
same,"viability, T/C","second compound 0.316 µM, first compound 0.03 µM",80.8%
same,"viability, T/C","second compound 0.316 µM, first compound 0.0949 µM",60.3%
same,"viability, T/C","second compound 0.316 µM, first compound 0.3 µM",57.4%
same,"viability, T/C","second compound 0.316 µM, first compound 0.949 µM",47%
same,"viability, T/C","second compound 0.316 µM, first compound 3 µM",31.7%
same,"viability, T/C","second compound 1 µM, first compound 0.00949 µM",71.5%
same,"viability, T/C","second compound 1 µM, first compound 0.03 µM",67.8%
same,"viability, T/C","second compound 1 µM, first compound 0.0949 µM",49.9%
same,"viability, T/C","second compound 1 µM, first compound 0.3 µM",48.1%
same,"viability, T/C","second compound 1 µM, first compound 0.949 µM",52.9%
same,"viability, T/C","second compound 1 µM, first compound 3 µM",28.6%
Cn1ncnc1[C@H]1c2n[nH]c(=O)c3cc(F)cc(c23)N[C@@H]1c1ccc(F)cc1 + Cc1c(S(C)(=O)=O)c(-c2cc(F)cc(N3CCN(c4ccc(NS(=O)(=O)c5ccc(NC(CCN6CCC(C(=O)OCCCP(=O)(O)O)CC6)CSc6ccccc6)c(S(=O)(=O)C(F)(F)F)c5)cc4)CC3)c2)c(-c2ccc(Cl)cc2)n1C(C)C,IC50,second compound 0.1 µM,> 100 nM
same,IC50,second compound 0.316 µM,> 100 nM
same,IC50,second compound 1 µM,> 100 nM
same,IC50,second compound 3.16 µM,> 100 nM
same,IC50,second compound 10 µM,> 100 nM
same,"viability, T/C","second compound 0.1 µM, first compound 0.000316 µM",78.7%
same,"viability, T/C","second compound 0.1 µM, first compound 0.001 µM",77.9%
same,"viability, T/C",[1],72.1%
same,"viability, T/C",[2],71.5%
same,"viability, T/C",[3],77.2%
same,"viability, T/C",[4],50.6%
same,"viability, T/C","second compound 0.316 µM, first compound 0.000316 µM",71.8%
same,"viability, T/C","second compound 0.316 µM, first compound 0.001 µM",74.6%
same,"viability, T/C",[5],80.4%
same,"viability, T/C",[6],97.1%
same,"viability, T/C",[7],66.9%
same,"viability, T/C",[8],59.8%
same,"viability, T/C","second compound 1 µM, first compound 0.000316 µM",84.7%
same,"viability, T/C","second compound 1 µM, first compound 0.001 µM",78.4%
same,"viability, T/C",[9],93.8%
same,"viability, T/C",[10],72.1%
same,"viability, T/C",[11],55.9%
same,"viability, T/C",[12],65.2%
same,"viability, T/C","second compound 3.16 µM, first compound 0.000316 µM",86.7%
same,"viability, T/C","second compound 3.16 µM, first compound 0.001 µM",75.8%
same,"viability, T/C",[13],72.6%
same,"viability, T/C",[14],63.3%
same,"viability, T/C",[15],61%
same,"viability, T/C",[16],56%
same,"viability, T/C","second compound 10 µM, first compound 0.000316 µM",100%
same,"viability, T/C","second compound 10 µM, first compound 0.001 µM",84.8%
same,"viability, T/C",[17],66.1%
same,"viability, T/C",[18],64.2%
same,"viability, T/C",[19],60.2%
same,"viability, T/C",[20],73.6%
O=C(c1cc(Cc2n[nH]c(=O)c3ccccc23)ccc1F)N1CCN(C(=O)C2CC2)CC1 + Cc1c(S(C)(=O)=O)c(-c2cc(F)cc(N3CCN(c4ccc(NS(=O)(=O)c5ccc(NC(CCN6CCC(C(=O)OCCCP(=O)(O)O)CC6)CSc6ccccc6)c(S(=O)(=O)C(F)(F)F)c5)cc4)CC3)c2)c(-c2ccc(Cl)cc2)n1C(C)C,IC50,second compound 0.1 µM,> 10000 nM
same,IC50,second compound 0.316 µM,> 10000 nM
same,IC50,second compound 1 µM,9830 nM
same,IC50,second compound 3.16 µM,> 10000 nM
same,IC50,second compound 10 µM,> 10000 nM
same,"viability, T/C",[3],81.9%
same,"viability, T/C",[4],59.6%
same,"viability, T/C",[21],68.3%
same,"viability, T/C",[22],64.5%
same,"viability, T/C","second compound 0.1 µM, first compound 3.16 µM",81.1%
same,"viability, T/C","second compound 0.1 µM, first compound 10 µM",64.5%
same,"viability, T/C",[7],70.9%
same,"viability, T/C",[8],67.1%
same,"viability, T/C",[23],56.8%
same,"viability, T/C",[24],69.5%
same,"viability, T/C","second compound 0.316 µM, first compound 3.16 µM",60.8%
same,"viability, T/C","second compound 0.316 µM, first compound 10 µM",49.8%
same,"viability, T/C",[11],58.5%
same,"viability, T/C",[12],78.6%
same,"viability, T/C",[25],65.6%
same,"viability, T/C",[26],79.7%
same,"viability, T/C","second compound 1 µM, first compound 3.16 µM",72.6%
same,"viability, T/C","second compound 1 µM, first compound 10 µM",49.7%
same,"viability, T/C",[15],101%
same,"viability, T/C",[16],72.9%
same,"viability, T/C",[27],77.1%
same,"viability, T/C",[28],64%
same,"viability, T/C","second compound 3.16 µM, first compound 3.16 µM",58.8%
same,"viability, T/C","second compound 3.16 µM, first compound 10 µM",51.5%
same,"viability, T/C",[19],75%
same,"viability, T/C",[20],85.8%
same,"viability, T/C",[29],76.9%
same,"viability, T/C",[30],62.5%
same,"viability, T/C","second compound 10 µM, first compound 3.16 µM",68.9%
same,"viability, T/C","second compound 10 µM, first compound 10 µM",49%
O=C(c1ccc(F)c(F)c1Nc1ccc(I)cc1F)N1CC(O)([C@@H]2CCCCN2)C1 + Cc1c(S(C)(=O)=O)c(-c2cc(F)cc(N3CCN(c4ccc(NS(=O)(=O)c5ccc(NC(CCN6CCC(C(=O)OCCCP(=O)(O)O)CC6)CSc6ccccc6)c(S(=O)(=O)C(F)(F)F)c5)cc4)CC3)c2)c(-c2ccc(Cl)cc2)n1C(C)C,IC50,second compound 0.1 µM,303 nM
same,IC50,second compound 0.316 µM,336 nM
same,IC50,second compound 1 µM,259 nM
same,IC50,second compound 3.16 µM,240 nM
same,IC50,second compound 10 µM,181 nM
same,"viability, T/C",[1],62.2%
same,"viability, T/C",[2],69.7%
same,"viability, T/C",[3],77.1%
same,"viability, T/C",[4],95.3%
same,"viability, T/C",[21],49%
same,"viability, T/C",[22],22.4%
same,"viability, T/C",[5],83%
same,"viability, T/C",[6],80.3%
same,"viability, T/C",[7],107%
same,"viability, T/C",[8],106%
same,"viability, T/C",[23],51.9%
same,"viability, T/C",[24],16.5%
same,"viability, T/C",[9],82.9%
same,"viability, T/C",[10],80.6%
same,"viability, T/C",[11],106%
same,"viability, T/C",[12],77%
same,"viability, T/C",[25],44.3%
same,"viability, T/C",[26],13.2%
same,"viability, T/C",[13],86.2%
same,"viability, T/C",[14],90.3%
same,"viability, T/C",[15],80.7%
same,"viability, T/C",[16],110%
same,"viability, T/C",[27],36.6%
same,"viability, T/C",[28],14.5%
same,"viability, T/C",[17],86.3%
same,"viability, T/C",[18],81.9%
same,"viability, T/C",[19],82.5%
same,"viability, T/C",[20],72.8%
same,"viability, T/C",[29],28.8%
same,"viability, T/C",[30],8.55%
